Results from PubChem BioAssay AID256 (DTP/NCI, 2004).
Where “and” joins values, the source holds several entries; their conditions need not be identical. Identical values can stand only once. Inconclusive results and toxic doses are left out. Rule for the calls: active = survival T/C of 150% or more; inactive = T/C below 125% in these data.

System: CD2F1 mice, L1210 leukemia ip, survival T/C
Test: NCI In Vivo Anticancer Drug Screen. Data for tumor model L1210 Leukemia (intraperitoneal) in CD2F1 (CDF1) mice
Conditions: endpoint: mean survival time, higher = longer survival
Procedure, shortened: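 Compound-dosed mice with transplantable tumor versus matched vehicle controls; endpoint ratio T/C reported.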

[1] = dose: 25.0 mg/kg/injection, schedule: Q01DX009 (ip), vehicle: saline with Tween-80
[2] = dose: 25.0 mg/kg/injection, schedule: Q04DX003 (ip), vehicle: saline with Tween-80
[3] = dose: 50.0 mg/kg/injection, schedule: Q04DX003 (ip), vehicle: saline with Tween-80
[4] = dose: 100.0 mg/kg/injection, schedule: Q04DX003 (ip), vehicle: saline with Tween-80
[5] = dose: 75.0 mg/kg/injection, schedule: Q01DX001 (ip), vehicle: saline
[6] = dose: 150.0 mg/kg/injection, schedule: Q01DX001 (ip), vehicle: saline
[7] = dose: 200.0 mg/kg/injection, schedule: Q04DX003 (ip), vehicle: saline with Tween-80
[8] = dose: 400.0 mg/kg/injection, schedule: Q04DX003 (ip), vehicle: saline with Tween-80
[9] = dose: 100.0 mg/kg/injection, schedule: Q01DX009 (ip), vehicle: saline with Tween-80
[10] = dose: 200.0 mg/kg/injection, schedule: Q01DX009 (ip), vehicle: saline with Tween-80
[11] = dose: 400.0 mg/kg/injection, schedule: Q01DX009 (ip), vehicle: saline with Tween-80
[12] = dose: 100.0 mg/kg/injection, schedule: Q01DX001 (ip), vehicle: saline with Tween-80
[13] = dose: 200.0 mg/kg/injection, schedule: Q01DX001 (ip), vehicle: saline with Tween-80
[14] = dose: 400.0 mg/kg/injection, schedule: Q01DX001 (ip), vehicle: saline with Tween-80
[15] = dose: 50.0 mg/kg/injection, schedule: Q01DX009 (ip), vehicle: saline with Tween-80
[16] = dose: 100.0 mg/kg/injection, schedule: Q04DX003 (ip), vehicle: saline
[17] = dose: 100.0 mg/kg/injection, schedule: Q04DX002 (ip), vehicle: saline with Tween-80
[18] = dose: 200.0 mg/kg/injection, schedule: Q04DX002 (ip), vehicle: saline with Tween-80
[19] = dose: 400.0 mg/kg/injection, schedule: Q04DX002 (ip), vehicle: saline with Tween-80
[20] = dose: 12.5 mg/kg/injection, schedule: Q04DX002 (ip), vehicle: saline with Tween-80
[21] = dose: 25.0 mg/kg/injection, schedule: Q04DX002 (ip), vehicle: saline with Tween-80
[22] = dose: 50.0 mg/kg/injection, schedule: Q04DX002 (ip), vehicle: saline with Tween-80

Measured: T/C

CCCCNC(C)(C)C(SSC(c1ccc(Cl)cc1)C(C)(C)NCCCC)c1ccc(Cl)cc1 (stereo not given)
inactive: dose: 6.25 mg/kg/injection, schedule: Q01DX009 (ip), vehicle: saline with Tween-80 96 % of control | dose: 12.5 mg/kg/injection, schedule: Q01DX009 (ip), vehicle: saline with Tween-80 98 % of control | [1] 96 % of control and 100 % of control | [2] 90 % of control | [3] 92 % of control | [4] 95 % of control and 96 % of control

C[n+]1ccc(/C(=N\O)c2ccccc2)cc1
inactive: dose: 37.5 mg/kg/injection, schedule: Q04DX003 (ip), vehicle: saline 100 % of control | [5] 101 % of control | dose: 75.0 mg/kg/injection, schedule: Q04DX003 (ip), vehicle: saline 100 % of control | [6] 97 % of control | dose: 150.0 mg/kg/injection, schedule: Q04DX003 (ip), vehicle: saline 95 % of control

CC1(C)OC(C(O)COC(=O)c2ccccc2)C(C(O)COC(=O)c2ccccc2)O1 (stereo not given)
inactive: dose: 50.0 mg/kg/injection, schedule: Q01DX009 (ip), vehicle: Klucel (hydroxypropylcellulose) (HPC) 98 % of control | dose: 100.0 mg/kg/injection, schedule: Q01DX009 (ip), vehicle: Klucel (hydroxypropylcellulose) (HPC) 98 % of control | dose: 200.0 mg/kg/injection, schedule: Q01DX009 (ip), vehicle: Klucel (hydroxypropylcellulose) (HPC) 102 % of control

CCCCCCCCCCC(O)CCCCCCCCCC
inactive: [4] 100 % of control | [7] 90 % of control | [8] 90 % of control

CSc1ccc(SC)nn1
inactive: [9] 102 % of control | [10] 96 % of control | [11] 91 % of control

CS(=O)(=O)c1nc2ccccc2s1
inactive: [9] 103 % of control | [10] 91 % of control

COC1=C(OCc2ccccc2)C(=O)OC1C(O)CO (stereo not given)
inactive: [12] 98 % of control | [13] 97 % of control | [14] 93 % of control

Cc1c2cnccc2c(C)c2c1c1ccccc1n2CCCCCCNCc1ccccc1
inactive: [2] 95 % of control | [3] 89 % of control | [4] 95 % of control

CN(C)CC1CCCCC(Br)C1=O (stereo not given)
inactive: [5] 98 % of control | [6] 107 % of control | dose: 300.0 mg/kg/injection, schedule: Q01DX001 (ip), vehicle: saline 117 % of control

CN1c2ccccc2C2CC(CC#N)CC(=O)C21 (stereo not given)
inactive: [12] 96 % of control | [13] 93 % of control | [14] 95 % of control

Cl/C=C(\Cl)CCl
inactive: [1] 91 % of control | [15] 96 % of control | [9] 94 % of control

CCCCNC(=O)/C=C\C(=O)O
inactive: [4] 97 % of control | [7] 100 % of control | [8] 100 % of control

O=S(=O)(O)CN(CCN(CS(=O)(=O)O)CS(=O)(=O)O)CS(=O)(=O)O
inactive: dose: 100.0 mg/kg/injection, schedule: Q01DX009 (ip), vehicle: saline sonified 96 % of control | [16] 109 % of control | dose: 200.0 mg/kg/injection, schedule: Q01DX009 (ip), vehicle: saline sonified 92 % of control | dose: 200.0 mg/kg/injection, schedule: Q04DX003 (ip), vehicle: saline 97 % of control | dose: 400.0 mg/kg/injection, schedule: Q01DX009 (ip), vehicle: saline sonified 91 % of control | dose: 400.0 mg/kg/injection, schedule: Q04DX003 (ip), vehicle: saline 97 % of control

N#Cc1nnn(C2OC(CO)C(O)C2O)c1C#N (stereo not given)
inactive: dose: 12.5 mg/kg/injection, schedule: Q01DX005 (ip), vehicle: other 100 % of control | dose: 25.0 mg/kg/injection, schedule: Q01DX005 (ip), vehicle: other 97 % of control | dose: 50.0 mg/kg/injection, schedule: Q01DX005 (ip), vehicle: other 96 % of control | dose: 100.0 mg/kg/injection, schedule: Q01DX005 (ip), vehicle: other 94 % of control | dose: 200.0 mg/kg/injection, schedule: Q01DX005 (ip), vehicle: other 102 % of control

O=c1[nH]cnc2c1ncn2CCCCCO
inactive: [12] 95 % of control | [17] 97 % of control | [13] 100 % of control | [18] 102 % of control | [14] 95 % of control | [19] 94 % of control

Cc1cccc(CC(F)F)c1
inactive: [3] 109 % of control | [12] 104 % of control | [4] 97 % of control | [13] 103 % of control | [7] 96 % of control

COc1cc(OC)c(NC(=O)Nc2ccc(C(=O)O)cc2)cc1Cl
inactive: [15] 89 % of control | [9] 100 % of control | [10] 96 % of control

O=C(OC1(c2ccccc2)C2CCC1CC2)c1ccc([N+](=O)[O-])cc1 (stereo not given)
inactive: [20] 96 % of control | [21] 93 % of control | [22] 101 % of control

NNC(=O)c1cccc([N+](=O)[O-])c1
inactive: [5] 109 % of control

O=C1c2ccccc2-c2ccc(-c3ccc4c5c(cccc35)C(=O)c3ccccc3-4)c3cccc1c23
inactive: [4] 97 % of control | [7] 97 % of control | [8] 86 % of control

CC(C)NC(=O)NC(C)C
inactive: dose: 100.0 mg/kg/injection, schedule: Q01DX001 (ip), vehicle: saline 107 % of control | dose: 200.0 mg/kg/injection, schedule: Q01DX001 (ip), vehicle: saline 102 % of control | dose: 400.0 mg/kg/injection, schedule: Q01DX001 (ip), vehicle: saline 100 % of control

CC(Br)C1(c2cccc([N+](=O)[O-])c2)OCCO1 (stereo not given)
inactive: dose: 12.0 mg/kg/injection, schedule: Q01DX009 (ip), vehicle: saline 96 % of control | dose: 25.0 mg/kg/injection, schedule: Q01DX009 (ip), vehicle: saline 112 % of control | dose: 50.0 mg/kg/injection, schedule: Q01DX009 (ip), vehicle: saline 106 % of control

C[Si](F)(c1cccc2ccccc12)c1cccc2ccccc12
inactive: [9] 93 % of control | [10] 98 % of control | [11] 96 % of control

Cc1ccc(N=Cc2cc(Cl)ccc2O)cc1.Cc1ccc(N=Cc2cc(Cl)ccc2O)cc1.[Co]
inactive: dose: 25.0 mg/kg/injection, schedule: Q04DX003 (ip), vehicle: saline 95 % of control and 104 % of control | dose: 50.0 mg/kg/injection, schedule: Q04DX003 (ip), vehicle: saline 98 % of control and 108 % of control | [16] 124 % of control and 89 % of control

CC(=O)OC1(c2cc(C(F)(F)F)cc(C(F)(F)F)c2)C2CCC1CC2 (stereo not given)
inactive: [20] 101 % of control | [21] 97 % of control | [22] 97 % of control

CC(=O)C(C(=N)C#N)C(C)=O
inactive: [22] 101 % of control | [17] 89 % of control | [18] 89 % of control

CCOC(=O)CCC(NC(=O)OCCNCCCl)C(=O)OCC (stereo not given)
inactive: dose: 40.0 mg/kg/injection, schedule: Q01DX Z (ip), vehicle: saline 100 % of control | dose: 80.0 mg/kg/injection, schedule: Q01DX Z (ip), vehicle: saline 96 % of control | dose: 160.0 mg/kg/injection, schedule: Q01DX Z (ip), vehicle: saline 103 % of control | dose: 320.0 mg/kg/injection, schedule: Q01DX Z (ip), vehicle: saline 117 % of control

O=c1cc(-c2ccccc2)nc2c(Cl)cc(Cl)cn12
inactive: [12] 96 % of control | [13] 93 % of control | [14] 96 % of control

CN(N)c1nc2c(=O)[nH]cnc2n1C1OC(CO)C(O)C1O (stereo not given)
inactive: dose: 12.5 mg/kg/injection, schedule: Q01DX005 (ip), vehicle: water 104 % of control | dose: 25.0 mg/kg/injection, schedule: Q01DX005 (ip), vehicle: water 101 % of control | dose: 50.0 mg/kg/injection, schedule: Q01DX005 (ip), vehicle: water 95 % of control | dose: 100.0 mg/kg/injection, schedule: Q01DX005 (ip), vehicle: water 103 % of control | dose: 200.0 mg/kg/injection, schedule: Q01DX005 (ip), vehicle: water 95 % of control

Brc1ccc2sc3ccccc3c2c1
inactive: [17] 102 % of control | [18] 89 % of control | [19] 91 % of control

CC1(c2ccccc2)C=CC(=O)CC1 (stereo not given)
inactive: [17] 93 % of control | [18] 101 % of control | [19] 97 % of control

O=S(=O)(/C=C\S(=O)(=O)c1ccccc1)c1ccccc1
inactive: dose: 12.5 mg/kg/injection, schedule: Q01DX009 (ip), vehicle: Klucel (hydroxypropylcellulose) (HPC) 98 % of control | dose: 25.0 mg/kg/injection, schedule: Q01DX009 (ip), vehicle: Klucel (hydroxypropylcellulose) (HPC) 95 % of control
